According to patent publication US20140193827A1 (TEVA PHARMACEUTICAL INDUSTRIES, LTD., priority 2013, published 2014):

Tested on: GA-primed murine splenocytes
Assay: ANOVA-based pattern identification method
Format: cell-based, mouse
Settings: DOWN IN generic ONLY
From the text: We sought to identify probes matching specific patterns of expression across experimental conditions using a technique that referred to as the ANOVA-based Pattern Identification Method.
To carry out the analysis in a general manner, we computed the 6 p-values required to do pairwise comparisons of all 4 conditions for all probes using the ANOVA1 function in MATLAB. We then identified sets of probes matching the desired pattern. In the example above, probes were identified as being only affected by PG if their 6 pairwise comparison pvalues matched the following pattern (pGA-PG<0.05, pPG-reference standard<0.05, pPG-Medium<0.05, pGAMedium>0.05, pGA-reference standard>0.05, preference standard-Medium>0.05).

## glatiramer acetate [GA]
  GFRA3 expression level: 5.616
  GJA7 expression level: 5.868
  GM362 expression level: 5.639
  HEATR5A expression level: 5.695
  IGHVS515—AF290966_IG_HEAVY—VARIABLE_5515_49 expression level: 5.952
  LOC235971 expression level: 5.505
  LOC277422 expression level: 5.729
  LOC382760 expression level: 5.651
  LOC382783 expression level: 5.536
  LOC383612 expression level: 5.569
  LOC383940 expression level: 5.805
  LOC384215 expression level: 5.829
  LOC384513 expression level: 5.705
  LOC385059 expression level: 5.539
  LOC385626 expression level: 6.046
  LOC620009 expression level: 5.619
  LOC676672 expression level: 5.825
  LOC100043389 expression level: 5.675
  LTBP1 expression level: 5.694
  NEUROD4 expression level: 5.671
  NFAT5 expression level: 5.815
  OA1 expression level: 5.552
  OLFR750 expression level: 5.646
  OLFR1085 expression level: 5.642
  OLFR1158 expression level: 5.912
  OLFR1180 expression level: 5.658
  OLFR1230 expression level: 5.655
  OSBPL6 expression level: 5.8511
  PCDHGA8 expression level: 5.782
  PIK3R4 expression level: 5.881
  PPP1R14D expression level: 5.611
  PTCHD2 expression level: 5.831
  RARRES1 expression level: 5.601
  RNF207 expression level: 5.863
  RPL10A expression level: 14.66
  RTN2 expression level: 5.939
  SCL0070954.1_214 expression level: 5.822
  SERPINB3D expression level: 5.741
  SMARCA2 expression level: 5.616
  TMEM219 expression level: 6.158
  TRPC6 expression level: 5.632
  UTX expression level: 5.7
  control_ILMN_1378571 expression level: 5.812
  control_ILMN_1378664 expression level: 5.743
  control_ILMN_1379333 expression level: 5.62
Group mean
  1110032A03RIK expression: 5.853
  1600012H06RIK expression: 7.313
  1600029O10RIK expression: 7.692
  1600032L17RIK expression: 6.091
  1700006H02RIK expression: 5.861
  1700011H14RIK expression: 5.738
  1700016G05RIK expression: 5.78
  1700016L04RIK expression: 5.693
  1700045I19RIK expression: 5.885
  1700073E17RIK expression: 5.629
  1700112H15RIK expression: 5.628
  1810005K13RIK expression: 5.74
  1810007M14RIK expression: 6.86
  2210008F06RIK expression: 5.65
  2210018M11RIK expression: 6.603
  2310016E02RIK expression: 5.742
  2510049I19RIK expression: 6.311
  2600011C06RIK expression: 6.286
  2810402E24RIK expression: 6.296
  4733401O04RIK expression: 6.449
  4833420G17RIK expression: 6.181
  4921505C17RIK expression: 6.382
  4921506J03RIK expression: 9.893
  4921506M07RIK expression: 5.749
  4922502D21RIK expression: 5.774
  4930449I04RIK expression: 5.894
  4930524L23RIK expression: 5.492
  5830411J07RIK expression: 5.837
  5830415L20RIK expression: 7.797
  5830472H07RIK expression: 6.24
  6030408K21RIK expression: 5.64
  9030003C19RIK expression: 6.271
  9130601C02RIK expression: 5.724
  9330133O14RIK expression: 6.205
  9330171B01RIK expression: 5.814
  9530013H16R1K expression: 5.782
  9530053H22 expression: 5.531
  9830118G07RIK expression: 6.53
  9930021J03RIK expression: 5.61
  6030408816RIK expression: 6.231
  A130003P22RIK expression: 6.043
  A130027D22RIK expression: 6.184
  A630040J04RIK expression: 5.997
  A630057J21RIK expression: 5.71
  A730082L10RIK expression: 6.255
  A930008A22RIK expression: 8.393
  A930025D01RIK expression: 6.43
  ADRA1B expression: 5.76
  AFMID expression: 6.226
  AGPAT5 expression: 5.926
  AGT expression: 5.634
  APOM expression: 6.071
  ARHGAP12 expression: 5.654
  ASH1L expression: 5.947
  ATG12 expression: 8.962
  ATL1 expression: 5.666
  AW822252 expression: 5.749
  B230120H23RIK expression: 5.612
  B230216G23RIK expression: 5.625
  B930071N01RIK expression: 5.764
  BC003331 expression: 7.368
  BC016608 expression: 5.838
  BC057371 expression: 5.752
  BCL10 expression: 6.261
  BCL11B expression: 6.506
  BCORL1 expression: 6.102
  BHLHB3 expression: 5.621
  BIRC6 expression: 6.264
  BMPR1B expression: 5.732
  C030004B10RIK expression: 5.708
  C77370 expression: 5.694
  C87414 expression: 5.972
  C130039E17RIK expression: 5.729
  C130064E22RIK expression: 7.411
  C130072C03RIK expression: 6.075
  C130075H21RIK expression: 5.869
  C130078D09RIK expression: 6.02
  C330011J12RIK expression: 5.722
  CALCRL expression: 5.569
  CCDC104 expression: 5.832
  CDH23 expression: 5.945
  CDKN1B expression: 6.29
  CFL2 expression: 6.246
  CHMP7 expression: 9.491
  CLASP1 expression: 6.034
  COL23A1 expression: 7.128
  COPS3 expression: 6.029
  COPZ1 expression: 6.26
  CPEB2 expression: 5.648
  CRLF1 expression: 5.648
  CTDSPL2 expression: 6.711
  D12WSU95E expression: 9.426
  D130078K04RIK expression: 5.957
  D730033A03RIK expression: 5.894
  D930007M19RIK expression: 6.333
  DEFB14 expression: 5.775
  DLC1 expression: 5.804
  DLG4 expression: 6.044
  DLGAP2 expression: 5.718
  DLX6 expression: 5.766
  DNAJC28 expression: 5.998
  DPPA1 expression: 5.758
  DPPA4 expression: 5.791
  E230016F22RIK expression: 5.685
  E530016P10RIK expression: 6.096
  EEFSEC expression: 5.654
  EG546913 expression: 5.766
  ELF2 expression: 6.475
  EP400 expression: 5.945
  FAAH expression: 5.947
  FABP2 expression: 5.582
  FBXW13 expression: 5.945
  FOXJ3 expression: 8.648
  GADD45GIP1 expression: 5.893
  GALNT1 expression: 7.895
  GALNT6 expression: 5.873
  GAPVD1 expression: 9.838
  GLRA1 expression: 5.643
  GM239 expression: 5.731
  GM438 expression: 5.731
  GM949 expression: 5.662
  GPR12 expression: 5.747
  GPRIN3 expression: 5.628
  GUCY2C expression: 5.74
  HARS expression: 6.212
  HBB-B1 expression: 13.28
  HEATR5B expression: 6.251
  HIRA expression: 5.73
  HIVEP3 expression: 5.796
  HPN expression: 5.793
  HRK expression: 5.72
  HSD362 expression: 5.745
  HSPA1B expression: 5.99
  ID2 expression: 6.095
  IFI204 expression: 5.486
  IGHV14S3—X03573$M12991X03573—IG_HEAVY—VARIABLE_14S3_203 expression: 6.044
  IKZF5 expression: 7.23
  IL1F9 expression: 5.644
  INPP4B expression: 9.329
  INSL6 expression: 9.438
  ITGA6 expression: 6.589
  ITK expression: 10.36
  JRKL expression: 5.816
  K20D4 expression: 5.688
  KAT2B expression: 6.564
  KCNK4 expression: 5.659
  KISS1 expression: 5.727
  KRIT1 expression: 5.684
  KRT32 expression: 6.01
  LCN3 expression: 5.859
  LCP2 expression: 6.557
  LOC209474 expression: 5.679
  LOC229152 expression: 5.605
  LOC236397 expression: 5.838
  LOC236831 expression: 12.43
  LOC268939 expression: 5.99
  LOC279638 expression: 6.022
  LOC333749 expression: 5.939
  LOC381448 expression: 12.91
  LOC381561 expression: 13.17
  LOC381770 expression: 6.112
  LOC382061 expression: 10.4
  LOC382454 expression: 5.761
  LOC384240 expression: 5.807
  LOC384287 expression: 5.612
  LOC385027 expression: 5.666
  LOC385046 expression: 5.695
  LOC630421 expression: 5.995
  LOC637082 expression: 5.805
  LOC674087 expression: 8.034
  LOC675899 expression: 11.9
  LOC100045437 expression: 5.74
  LOC100046343 expression: 8.607
  LOC100046568 expression: 5.888
  LOC100048049 expression: 5.81
  LOC100048616 expression: 6.595
  LOXL3 expression: 5.801
  LPIN2 expression: 7.582
  LRRC18 expression: 5.542
  LRRC39 expression: 5.712
  MACROD2 expression: 5.854
  MADD expression: 5.584
  MAT2A expression: 8.359
  MDM2 expression: 10.46
  MEDI expression: 5.672
  MEX3A expression: 6.913
  MIA3 expression: 5.862
  MIS12 expression: 5.989
  MKI67 expression: 5.673
  MRPS31 expression: 5.671
  MSH3 expression: 6.288
  MYB expression: 5.95
  MYO5C expression: 5.73
  NA112 expression: 8.275
  NANP expression: 5.686
  NARF expression: 7.224
  NCOA2 expression: 5.964
  NDRG1 expression: 7.329
  NIN expression: 8.534
  NIPSNAP1 expression: 9.27
  NT5C expression: 10.09
  NUFIP2 expression: 6.03
  OLFR125 expression: 5.697
  OLFR463 expression: 5.805
  OLFR504 expression: 5.746
  OLFR564 expression: 5.592
  OLFR782 expression: 5.74
  OLFR894 expression: 5.766
  PAPPA expression: 5.918
